# From patent US20240284792A1, “ORGANIC COMPOUND, LIGHT-EMITTING DEVICE, DISPLAY APPARATUS, AND ELECTRONIC DEVICE” (SEMICONDUCTOR ENERGY LABORATORY CO., LTD., priority 2023, published 2024)
# Experiment: Solubility test (water solubility) by LC-MS analysis
# Format: physicochemical
# Description: In the LC-MS analysis, liquid chromatography (LC) separation was carried out with ACQUITY UPLC manufactured by Waters Corporation, and MS analysis (mass spectrometry) was carried out with Xevo G2 Tof MS manufactured by Waters Corporation. Acquity UPLC BEH C8 (2.1×100 mm, 1.7 μm) was used as a column for the LC separation. Acetonitrile was used for Mobile Phase A and a 0.1% aqueous solution of formic acid was used for Mobile Phase B. The injection amount of the sample was 5.0 μL. Note that in the analysis, the wavelength of a photodiode array detector was set to 330 nm±1 nm.
# In a 5-mL sample bottle, 1 mg of SFPy-hpp was put and 2 mL of N,N-dimethylformamide was added thereto. This mixture was irradiated with ultrasonic waves for five minutes. After it was confirmed that the solid was completely dissolved, this solution was diluted by 2.5 times with acetonitrile, whereby the concentration of the solution was adjusted to 200 mg/L. This solution was diluted with acetonitrile, whereby a solution with a concentration of 4 mg/L, a solution with a concentration of 2 mg/L, and a solution with a concentration of 0.2 mg/L were prepared. The prepared solutions were subjected to LC-MS analysis, and the peak area values derived from SFPy-hpp, which were obtained at the respective solution concentrations, were used to form calibration curves.
# Next, the water solubility of SFPy-hpp was measured.
# In a 5-mL sample bottle, 1 mg of SFPy-hpp was put and 1 mL of water was added thereto. This mixture was irradiated with ultrasonic waves for five minutes. This mixture was filtered through a membrane filter to remove the solid. The obtained solution was subjected to LC-MS analysis.
structure (smiles),measurement,setting,value
"c1cc(-c2ccc3c(c2)C2(c4ccccc4-c4ccccc42)c2ccccc2-3)nc(N2CCCN3CCCN=C32)c1 [SFPy-hpp, 1-[6-(9,9′-spirobi[9H-fluoren]-2-yl)pyridin-2-yl]-1,3,4,6,7,8-hexahydro-2H-pyrimido[1,2-a]pyrimidine]",solubility in 1 mL of water,"1 mg compound in 1 mL water, ultrasonic waves five minutes, membrane filtered, LC-MS with calibration curve",0.00029 mg
same,solubility at 5 min,"thermodynamic from solid, water, from calibration curve and LC-MS signal intensity, read-out: weight fraction of the water solubility",0.29 µg/mL
same,water solubility (in words),"water, conclusion from LC-MS solubility test",extremely low water solubility
